In ChEMBL document CHEMBL1201862, “PubChem BioAssay data set” (2004):
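In this assay, cells in 96-well plates receive the compound at five concentrations for 48 hours. Endpoints are linearly interpolated between the surrounding concentrations. Abbreviation: GI50, concentration required for 50% inhibition of growth.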 Activity calls are given as the source filed them. No stated cut-off is given here; in the data, active = GI50 up to about 1.1 µM and inactive = higher.

What was measured:
Experiment in all cases: DTP human tumour cell line panel, 48 h
[1] = system: CAKI-1
[2] = system: TK-10
[3] = system: ACHN
[4] = system: SR
[5] = system: SF-268
[6] = system: UACC-62
[7] = system: BT-549
[8] = system: IGROV-1
[9] = system: HCT-116
[10] = system: SW-620
[11] = system: MDA-MB-231
[12] = system: SK-MEL-5
[13] = system: SNB-75
[14] = system: T47D
[15] = system: 786-0
[16] = system: UACC-257
[17] = system: HCT-15
[18] = system: NCI/ADR-RES
[19] = system: A498
[20] = system: MOLT-4

SMILES	GI50 [1]	GI50 [2]	GI50 [3]	GI50 [4]	GI50 [5]	GI50 [6]	GI50 [7]	GI50 [8]	GI50 [9]	GI50 [10]	GI50 [11]	GI50 [12]	GI50 [13]	GI50 [14]	GI50 [15]	GI50 [16]	GI50 [17] [µM]	GI50 [18]	GI50 [19]	GI50 [20]
[N-]=[N+]=NCC(=O)c1cnc(O)nc1O	> 100 µM (inactive)	> 100 µM (inactive)	> 100 µM (inactive)	> 100 µM (inactive)	> 100 µM (inactive)	> 100 µM (inactive)	> 100 µM (inactive)	> 100 µM (inactive)	> 100 µM (inactive)	> 100 µM (inactive)	> 100 µM (inactive)	> 100 µM (inactive)	> 100 µM (inactive)	> 100 µM (inactive)	> 100 µM (inactive)	> 100 µM (inactive)	> 100	> 100 µM (inactive)	> 100 µM (inactive)	–
O=C1/C(=C/c2ccccc2)CCc2ccc(Cl)nc21	3.77 µM (inactive)	13.9 µM (inactive)	11.9 µM (inactive)	2.8 µM (inactive)	12.1 µM (inactive)	10.4 µM (inactive)	13.9 µM (inactive)	4.5 µM (inactive)	2.55 µM (inactive)	3.98 µM (inactive)	15.2 µM (inactive)	5.31 µM (inactive)	17.2 µM (inactive)	4.85 µM (inactive)	7.18 µM (inactive)	5.4 µM (inactive)	3.52	19.6 µM (inactive)	18.3 µM (inactive)	2.28 µM (inactive)
CC(C)(C)c1cc(C(=O)/C=C/c2cc[nH]n2)cc(C(C)(C)C)c1O	2.48 µM (inactive)	1.54 µM (inactive)	1.62 µM (inactive)	1.19 µM (inactive)	2.4 µM (inactive)	3.26 µM (inactive)	4.83 µM (inactive)	1.93 µM (inactive)	2.43 µM (inactive)	2.33 µM (inactive)	1.91 µM (inactive)	7.52 µM (inactive)	4.61 µM (inactive)	1.11 µM (active)	1.58 µM (inactive)	3.24 µM (inactive)	2.11	4.62 µM (inactive)	2.17 µM (inactive)	2.61 µM (inactive)
CC1=Cc2ccc(C)cc2C(=O)C1=O	5.07 µM (inactive)	1.83 µM (inactive)	1.95 µM (inactive)	1.58 µM (inactive)	8.67 µM (inactive)	20.2 µM (inactive)	21.2 µM (inactive)	14.4 µM (inactive)	5.47 µM (inactive)	2.81 µM (inactive)	20.6 µM (inactive)	20.4 µM (inactive)	8.3 µM (inactive)	1.82 µM (inactive)	1.85 µM (inactive)	5.89 µM (inactive)	19.3	18.8 µM (inactive)	22.4 µM (inactive)	0.605 µM (active)
CC(C)OC(=O)c1ccc(NCC2=CC(=O)C=CC2=O)cc1Cl	2.19 µM (inactive)	15.7 µM (inactive)	4.36 µM (inactive)	1.58 µM (inactive)	12.1 µM (inactive)	13.2 µM (inactive)	2.62 µM (inactive)	11.5 µM (inactive)	19.3 µM (inactive)	11.5 µM (inactive)	16.4 µM (inactive)	18.7 µM (inactive)	15.8 µM (inactive)	2.3 µM (inactive)	14.1 µM (inactive)	16.1 µM (inactive)	4.4	7.93 µM (inactive)	16.3 µM (inactive)	3.72 µM (inactive)
NNc1nncn1N	> 100 µM (inactive)	> 100 µM (inactive)	> 100 µM (inactive)	39.1 µM (inactive)	> 100 µM (inactive)	> 100 µM (inactive)	> 100 µM (inactive)	> 100 µM (inactive)	> 100 µM (inactive)	> 57.1 µM (inactive)	> 100 µM (inactive)	> 100 µM (inactive)	> 100 µM (inactive)	63 µM (inactive)	> 80 µM (inactive)	> 100 µM (inactive)	> 100	> 90.6 µM (inactive)	> 100 µM (inactive)	> 62.4 µM (inactive)
CNC1C(O)C(OC2C(N)CC(N)C(OC3OC(C(C)O)C(O)C(O)C3N)C2O)OCC1(C)O (configuration not stated)	> 100 µM (inactive)	> 100 µM (inactive)	> 100 µM (inactive)	> 100 µM (inactive)	> 100 µM (inactive)	> 100 µM (inactive)	> 100 µM (inactive)	> 100 µM (inactive)	> 100 µM (inactive)	> 100 µM (inactive)	> 100 µM (inactive)	> 100 µM (inactive)	> 100 µM (inactive)	> 100 µM (inactive)	> 100 µM (inactive)	–	> 100	> 100 µM (inactive)	> 100 µM (inactive)	> 100 µM (inactive)
Cc1cc2c(O)c(c1)CN(CC(=O)O)Cc1cc(C)cc(c1O)CN(CC(=O)O)Cc1cc(C)cc(c1O)CN(CC(=O)O)C2	> 100 µM (inactive)	> 100 µM (inactive)	> 100 µM (inactive)	> 100 µM (inactive)	> 100 µM (inactive)	> 100 µM (inactive)	> 100 µM (inactive)	–	> 100 µM (inactive)	> 100 µM (inactive)	> 100 µM (inactive)	> 100 µM (inactive)	> 100 µM (inactive)	> 100 µM (inactive)	> 100 µM (inactive)	> 100 µM (inactive)	> 100	> 100 µM (inactive)	> 100 µM (inactive)	> 100 µM (inactive)
NNC(=O)CC(=O)Nc1cccc(Cl)c1	> 100 µM (inactive)	> 100 µM (inactive)	> 100 µM (inactive)	> 100 µM (inactive)	> 100 µM (inactive)	> 100 µM (inactive)	> 100 µM (inactive)	> 100 µM (inactive)	> 100 µM (inactive)	> 100 µM (inactive)	> 100 µM (inactive)	> 100 µM (inactive)	> 100 µM (inactive)	> 100 µM (inactive)	> 100 µM (inactive)	25.3 µM (inactive)	> 100	2.21 µM (inactive)	> 100 µM (inactive)	> 100 µM (inactive)
OCCOc1ccc(-c2cc(-c3ccccn3)nc(-c3ccccn3)c2)cc1	0.398 µM (active)	0.889 µM (active)	0.0661 µM (active)	0.11 µM (active)	0.107 µM (active)	0.206 µM (active)	0.352 µM (active)	0.286 µM (active)	0.115 µM (active)	0.267 µM (active)	1.39 µM (inactive)	0.23 µM (active)	0.458 µM (active)	0.553 µM (active)	0.0736 µM (active)	0.481 µM (active)	0.0574	0.202 µM (active)	3.3 µM (inactive)	0.0767 µM (active)
CC(C)NCCCNc1c2ccccc2nc2cccc([N+](=O)[O-])c12	0.029 µM (active)	0.0373 µM (active)	0.0136 µM (active)	< 0.001 µM (active)	0.00757 µM (active)	0.0125 µM (active)	0.0421 µM (active)	< 0.001 µM (active)	0.0262 µM (active)	0.00514 µM (active)	0.0132 µM (active)	0.00354 µM (active)	0.0308 µM (active)	0.00851 µM (active)	0.00445 µM (active)	0.0445 µM (active)	0.0504	0.794 µM (active)	0.0164 µM (active)	0.00211 µM (active)
O=C(N/N=C1/C(=O)c2c3ccccc3cc3cccc1c23)c1ccccc1	26.4 µM (inactive)	22.1 µM (inactive)	29.1 µM (inactive)	> 58.6 µM (inactive)	30 µM (inactive)	26.8 µM (inactive)	> 100 µM (inactive)	25.4 µM (inactive)	30.8 µM (inactive)	> 100 µM (inactive)	42.4 µM (inactive)	23.6 µM (inactive)	27.2 µM (inactive)	3.69 µM (inactive)	19.1 µM (inactive)	> 62.1 µM (inactive)	49.1	40 µM (inactive)	22.1 µM (inactive)	> 62.7 µM (inactive)
O=C(c1ccccc1)c1nc2ccc(Cl)cc2cc1C(Br)Br	0.552 µM (active)	0.687 µM (active)	0.263 µM (active)	1.68 µM (inactive)	0.384 µM (active)	0.569 µM (active)	0.144 µM (active)	0.735 µM (active)	0.108 µM (active)	0.185 µM (active)	0.0685 µM (active)	0.692 µM (active)	0.278 µM (active)	0.2 µM (active)	0.17 µM (active)	0.525 µM (active)	0.31	0.161 µM (active)	1.79 µM (inactive)	0.678 µM (active)
O=c1ccn(CC2(CO)CCCC2)c(=O)[nH]1	> 100 µM (inactive)	> 100 µM (inactive)	> 100 µM (inactive)	> 100 µM (inactive)	> 100 µM (inactive)	> 100 µM (inactive)	> 100 µM (inactive)	> 100 µM (inactive)	> 100 µM (inactive)	> 100 µM (inactive)	> 100 µM (inactive)	> 100 µM (inactive)	> 100 µM (inactive)	> 100 µM (inactive)	> 100 µM (inactive)	> 100 µM (inactive)	> 100	> 100 µM (inactive)	7.64 µM (inactive)	> 100 µM (inactive)
O=S(=O)(O)CCCc1cccc2ccccc12	> 100 µM (inactive)	> 100 µM (inactive)	> 100 µM (inactive)	> 100 µM (inactive)	> 100 µM (inactive)	> 100 µM (inactive)	> 100 µM (inactive)	> 100 µM (inactive)	> 100 µM (inactive)	> 100 µM (inactive)	> 100 µM (inactive)	> 100 µM (inactive)	> 100 µM (inactive)	> 100 µM (inactive)	> 100 µM (inactive)	> 100 µM (inactive)	> 100	> 100 µM (inactive)	> 100 µM (inactive)	> 100 µM (inactive)
